# Read-outs that look alike come from different tables or passages of the source.
# T1: CCK-binding sites on rat pancreatic plasma membranes (Rattus norvegicus, UniProt P30551)
# T1 sequence (P30551 1-444): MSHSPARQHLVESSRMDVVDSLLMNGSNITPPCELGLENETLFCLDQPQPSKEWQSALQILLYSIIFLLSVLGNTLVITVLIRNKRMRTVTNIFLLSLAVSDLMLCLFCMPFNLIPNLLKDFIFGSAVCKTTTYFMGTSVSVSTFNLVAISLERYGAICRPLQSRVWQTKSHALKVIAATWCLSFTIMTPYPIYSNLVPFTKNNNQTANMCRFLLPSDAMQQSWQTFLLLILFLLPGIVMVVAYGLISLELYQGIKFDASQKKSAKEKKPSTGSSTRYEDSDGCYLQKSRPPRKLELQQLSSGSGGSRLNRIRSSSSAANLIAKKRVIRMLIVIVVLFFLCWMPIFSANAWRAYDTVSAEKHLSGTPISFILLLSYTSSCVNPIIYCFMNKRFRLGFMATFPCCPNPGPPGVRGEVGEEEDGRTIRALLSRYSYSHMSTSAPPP
# T2: CCK-binding site (Mr 85,000 protein) of rat pancreatic plasma membranes (Rattus norvegicus, UniProt P30551)
# T2 sequence (P30551 1-444): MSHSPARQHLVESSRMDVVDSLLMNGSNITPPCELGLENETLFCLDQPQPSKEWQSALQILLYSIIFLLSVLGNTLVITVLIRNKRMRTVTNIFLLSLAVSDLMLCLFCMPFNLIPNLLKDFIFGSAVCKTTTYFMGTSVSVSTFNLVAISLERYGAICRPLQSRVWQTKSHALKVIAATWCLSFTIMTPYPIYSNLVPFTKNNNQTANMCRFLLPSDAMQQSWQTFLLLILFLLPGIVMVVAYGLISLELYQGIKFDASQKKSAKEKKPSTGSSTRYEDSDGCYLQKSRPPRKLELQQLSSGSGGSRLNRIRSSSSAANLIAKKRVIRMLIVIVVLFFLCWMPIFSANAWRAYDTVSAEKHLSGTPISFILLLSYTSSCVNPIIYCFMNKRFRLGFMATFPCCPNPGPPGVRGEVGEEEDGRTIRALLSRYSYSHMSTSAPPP
# Assays:
# [1] = molecular target: T1, CCK-binding sites on rat pancreatic plasma membranes; test: Competitive inhibition of 125I-CCK-33 binding to pancreatic plasma membranes
# [2] = system: CCK-binding sites on rat pancreatic acinar cells; assay type: cell-based
# [3] = system: CCK-binding sites on rat pancreatic acinar cells; test: Light microscopic autoradiography of pancreatic acini; assay type: cell-based; conditions: ~0.1 nM 125I-CCK-33, 15 min at 37C; Fig. 2a; similar results at 2 min
# [4] = system: rabbit anti-CCK IgG (antiserum No. L-48); test: Affinity labeling of anti-CCK antibodies; assay type: binding; conditions: 0.07 nM 125I-CCK-33, 24 h at 4C, 1 mM DSS; Fig. 1 lane a
# [5] = 125I-labeled Bolton-Hunter reagent; cited from earlier work
# [6] = molecular target: T2, CCK-binding site (Mr 85,000 protein) of rat pancreatic plasma membranes; test: Affinity labeling; conditions: micromolar concentrations of competitor; unpublished results
# [7] = system: CCK receptor in rat pancreatic acini; conditions: rat pancreatic acinar cell; cited from earlier work
# [8] = system: CCK-binding sites of rat pancreatic plasma membranes; conditions: ultraviolet irradiation cross-linking; cited from earlier work
# [9] = system: CCK receptors of mouse pancreatic acini; conditions: electron microscopic autoradiography; cited from earlier work
# [10] = 0.1 nM 125I-CCK-33, 2 or 15 min, 37C, % of total grains
# [11] = 2 min, 37C, 0.1 nM 125I-CCK-33, mean ± SEM, 17 micrographs, Table I
# [12] = 15 min, 37C, 0.1 nM 125I-CCK-33, mean ± SEM, 18 micrographs, Table I
molecule,measurement,setting,value
"125I-CCK-33: CCK-33 acylated with 125I-labeled Bolton-Hunter reagent (KAPSGRVSMIKNLQSLDPSHRISDRDYMGWMDF; Cholecystokinin-33 125I-Bolton-Hunter labeled; UniProt P01356 70-102, looked up)",peptide released from binding sites during cross-linking and subsequent washing,[1],< 5%
same,grains over cytoplasm (summary),[2]; [10],~ 30%
same,grains over embedding medium (summary),[2]; [10],5- 8%
same,grains over nucleus (summary),[2]; [10],1-2%
same,grains within 1 HD of the lateral and basal plasmalemma,[2]; [10],approximately 60%
same,Basal PM grain density,[2]; [11],2.57 0.08 grains/µm2
same,"Cytoplasm, % total grains",[2]; [11],34.0 ± 1.3 % total grains
same,Lateral PM grain density,[2]; [11],1.10 0.05 grains/µm2
same,"Lateral PM, % total grains",[2]; [11],12.1 ± 0.4 % total grains
same,distribution of grains at 4C,"[2]; 2 min or 15 min at 4C, data not shown, compared with 37C",Qualitatively similar results
same,relative grain density over cytoplasm or nucleus compared to embedding medium,"[2]; 15 min, 37C",no statistically significant increase
same,Apical PM grain density,[2]; [12],0.11 ± 0.02 grains/µm2
same,"Apical PM, % total grains",[2]; [12],0.1 % total grains
same,Basal PM grain density,[2]; [12],2.46 0.11 grains/µm2
same,"Basal PM, % total grains",[2]; [12],34.8 0.6 % total grains
same,"Cytoplasm, % total grains",[2]; [12],30.0 ± 0.8 % total grains
same,"Embedding medium, % total grains",[2]; [12],8.1 0.6 % total grains
same,Lateral PM grain density,[2]; [12],2.32 0.07 grains/µm2
same,"Lateral PM, % total grains",[2]; [12],25.5 ± 0.6 % total grains
same,specific binding sites on centroacinar or ductular cells,"[2]; autoradiography, 125I-CCK-33",no apparent specific
same,relative grain density over cytoplasm and nucleus (summary),"[2]; either time point, 37C",never exceeded unity
same,distribution of autoradiographic grains (light microscopy),[3],primarily delineated the basal and lateral boundaries of the acinar cells
same,labeling of heavy and light chains of anti-CCK IgG,[4],labeling of the heavy and light chains of anti-CCK IgG was obtained
same,secretagogue activity after Bolton-Hunter acylation,[5],retention of secretagogue activity
insulin: polypeptide hormone tested at micromolar concentration as specificity control,effect on labeling of membrane proteins by 125I-CCK-33,[6],unaffected
secretin: peptide tested at micromolar concentration as specificity control,effect on labeling of membrane proteins by 125I-CCK-33,[6],unaffected
"cholecystokinin (peptide, UniProt P06307 21-115, looked up, Cholecystokinin) Cholecystokinin: QPVPPADPAGSGLQRAEEAPRRQLRVSQRTDGESRAHLGALLARYIQQARKAPSGRMSIVKNLQNLDPSHRISDRDYMGWMDFGRRSAEEYEYPS",high affinity binding sites per cell,[7],approximately 650 binding sites per cell
same,low affinity binding sites per cell,[7],"~100,000 binding sites per cell"
same,Mr of specifically labeled polypeptide,[8],"76,000"
same,localization of CCK receptors,[9],localized to the basolateral plasmalemma of mouse pancreatic acini

# — paper PMC2112634 (The Journal of Cell Biology, 1983)
